Experimental data reported in US12281225B2, “Process for preparing stable polymers containing vinylimidazole” (BASF SE, priority 2018, dated 2025).

Assays:
[1] = Physical stability; visual assessment (color, turbidity, phase separation); assay type: physicochemical; design: key: ++: no discernible change with respect to color, turbidity or phase separation; +: marginal change in color number, somewhat increased Tyndall effect but no turbidity; 0: easily discernible increase in color number and moderate turbidity−no phase separation; −: turbidity and change in color number readily discernible by visual assessment; −−: strong color change with strong turbidity and incipient phase separation
Excerpt: Physical stability; visual assessment according to:
++=no discernible change with respect to color, turbidity or phase separation; +=marginal change in color number, somewhat increased Tyndall effect but no turbidity; 0=easily discernible increase in color number and moderate turbidity−no phase separation; − turbidity and change in color number readily discernible by visual assessment; −− strong color change with strong turbidity and incipient phase separation.
Before storage, all batches could be rated ++ (no turbidity or phase separation; no influence of the biocide on the color number of the product).

[2] = test system: Bacteria: Escherichia coli, Staphylococcus aureus, Pseudomonas aeruginosa, Pseudomonas putida, Burkholderia cepacia, Alcaligenes faecalis; assay: Preservation test with periodic inoculation, bacteria assessment; assay type: cell-based; settings: sample stored 60 d at 40° C.
Protocol: (§1) Microbiological results at the start (freshly formulated, i.e. 4-week test series is started immediately) and after 60 days of storage at 40° C. (i.e. the 4-week microbial testing is started with the sample stored at 40° C. for 60 days)
(§2) The test described below is carried out in order to ascertain the preserving effect of chemical preservatives in aqueous products and systems, the principle of the described method reflecting the efficacy of chemical preservatives with respect to pot-maintenance of aqueous products/systems under conditions corresponding to the use of laundry products/consumer products by the consumer. For this purpose, the preservatives to be tested are added in those concentrations which correspond to from the literature or to the manufacturer data from the suppliers (e.g. Thor, Speyer). In said test, our orientation was toward the upper range, which, with the exception of VI-containing polymers, had always led to excellent results in the case of aqueous polymers for laundry.
(§3) A constant microorganism load is achieved by periodic inoculation of the test batches. Before the swabs of each batch made respectively immediately in parallel with the inoculation. The assessment is made on the basis of the microbial growth of the streaks.
(§4) When carrying out said tests, 25 g of the polymer to be tested are weighed in each case into a vessel with a screw cap. The preservatives to be tested are each added in separate batches according to the specified use concentrations. An unpreserved product sample was used in each case for the growth control. Two days after the addition of the preservative, the samples are infected with 0.5 ml of inoculum (2% w/w). The titer of this inoculant solution is 10^9 organisms per ml. The following microorganisms are the test organisms for the preservation test:
(§5) • Escherichia coli • Staphylococcus aureus • Pseudomonas aeruginosa • Pseudomonas putida • Burkholderia cepacia • Alcaligenes faecalis Yeast: • Candida albicans • Candida valida • Rhodotorula rura • Saccharomyces cerevisiae
(§6) The test batches are inoculated four times altogether and once a week and are streaked on an agar plate once a week; the first streaking is done immediately before the new inoculation. Microbial growth on the agar surface is assessed after a three-day incubation at 25° C. As a precaution, negative swabs are additionally observed for a further three days and reassessed. The preserving effect is effected in a semiquantitative method via the growth of the individual streaks in accordance with the assessment from − via + to +++. The preservative result is repeatedly demonstrably robust, i.e. +++− defines the microbial growth.
(§7) When assessing the results, it is assumed that a preservative can be regarded as good if there are batches under the above-described laboratory conditions for a period of four weeks without microbial invasion of the sample, and that, even after the fourth inoculation, no microbial attacks occur growth can be identified. • −−: no growth • −: slight growth, max. 100 colonies • 0: moderate growth, max. 400 colonies • +: uniform growth with individual colonies still easily identifiable • ++: strong growth; too many colonies to be counted, already some extensive growth

[3] = test system: Yeast: Candida albicans, Candida valida, Rhodotorula rura, Saccharomyces cerevisiae; assay: Preservation test with periodic inoculation, yeast assessment; assay type: cell-based; settings: for Start sample measurement, yeast assess., 4th inoculation: freshly formulated; for 60 d 40° C., yeast assess., 4th inoculation: sample stored 60 d at 40° C.
Protocol: as §1, §2, §3, §4, §5, §6, §7

## CCCCCCCCCCCCCCCC[n+]1ccccc1 [CPC, cetylpyridinium chloride]
[1]; Polymer P1 with stabilizer
  Physical stability, 60 d 40° C.*: +
[1]; Polymer P2 with stabilizer
  Physical stability, 60 d 40° C.*: +
[1]; Polymer P3 with stabilizer
  Physical stability, 60 d 40° C.*: +
[1]; Polymer P4 with stabilizer
  Physical stability, 60 d 40° C.*: +
[1]; Polymer P5 (HP56) with stabilizer
  Physical stability, 60 d 40° C.*: +
[1]; Polymer P6 with stabilizer
  Physical stability, 60 d 40° C.*: +
[1]; Polymer P7 with stabilizer
  Physical stability, 60 d 40° C.*: +
[1]; Polymer P8 with stabilizer
  Physical stability, 60 d 40° C.*: +
[1]; Polymer P9 with stabilizer
  Physical stability, 60 d 40° C.*: +
[2]; Polymer P1
  60 d 40° C., bact. assess., 4th inoculation: − (slight growth, max. 100 colonies)
[2]; Polymer P2
  60 d 40° C., bact. assess., 4th inoculation: − (slight growth, max. 100 colonies)
[2]; Polymer P3
  60 d 40° C., bact. assess., 4th inoculation: − (slight growth, max. 100 colonies)
[2]; Polymer P4
  60 d 40° C., bact. assess., 4th inoculation: 0 (moderate growth, max. 400 colonies)
[2]; Polymer P5 (HP56)
  60 d 40° C., bact. assess., 4th inoculation: − (slight growth, max. 100 colonies)
[2]; Polymer P6
  60 d 40° C., bact. assess., 4th inoculation: − (slight growth, max. 100 colonies)
[2]; Polymer P7
  60 d 40° C., bact. assess., 4th inoculation: − (slight growth, max. 100 colonies)
[3]; Polymer P1
  Start sample measurement, yeast assess., 4th inoculation: − (slight growth, max. 100 colonies)
  60 d 40° C., yeast assess., 4th inoculation: − (slight growth, max. 100 colonies)
[3]; Polymer P2
  Start sample measurement, yeast assess., 4th inoculation: − (slight growth, max. 100 colonies)
  60 d 40° C., yeast assess., 4th inoculation: − (slight growth, max. 100 colonies)
[3]; Polymer P3
  Start sample measurement, yeast assess., 4th inoculation: − (slight growth, max. 100 colonies)
  60 d 40° C., yeast assess., 4th inoculation: 0 (moderate growth, max. 400 colonies)
[3]; Polymer P4
  Start sample measurement, yeast assess., 4th inoculation: − (slight growth, max. 100 colonies)
  60 d 40° C., yeast assess., 4th inoculation: 0 (moderate growth, max. 400 colonies)
[3]; Polymer P5 (HP56)
  Start sample measurement, yeast assess., 4th inoculation: − (slight growth, max. 100 colonies)
  60 d 40° C., yeast assess., 4th inoculation: 0 (moderate growth, max. 400 colonies)
[3]; Polymer P6
  Start sample measurement, yeast assess., 4th inoculation: − (slight growth, max. 100 colonies)
  60 d 40° C., yeast assess., 4th inoculation: 0 (moderate growth, max. 400 colonies)
[3]; Polymer P7
  Start sample measurement, yeast assess., 4th inoculation: − (slight growth, max. 100 colonies)
  60 d 40° C., yeast assess., 4th inoculation: 0 (moderate growth, max. 400 colonies)
[3]; Polymer P8
  Start sample measurement, yeast assess., 4th inoculation: − (slight growth, max. 100 colonies)
  60 d 40° C., yeast assess., 4th inoculation: 0 (moderate growth, max. 400 colonies)
[3]; Polymer P9
  Start sample measurement, yeast assess., 4th inoculation: − (slight growth, max. 100 colonies)
  60 d 40° C., yeast assess., 4th inoculation: − (slight growth, max. 100 colonies)
